# Measurements taken from article PMC5840262, “Design, Synthesis and Evaluation of Branched RRWQWR-Based Peptides as Antibacterial Agents Against Clinically Relevant Gram-Positive and Gram-Negative Pathogens” (Frontiers in Microbiology, 2018).
# Bridge positions count the residues as written; N and C are the ends. Square brackets hold non-standard residues; d marks the D form. Ends that are not written are not given here. Peptide text beside a SMILES is read from it. I, II: the chains in the order shown. Ahx = NCCCCCC(=O)O
# Legend:
# [1] = tested on: Pseudomonas aeruginosa ATCC 10145 (sensitive); assay type: cell-based; settings: for MBC: ATCC 10145, 18 h; for MIC50: ATCC 10145, 24 h
# Procedure: (§1) We screened all five peptides against the ATCC reference strains and the clinical isolates according to Method M7-A7 of the National Committee for Clinical Laboratory Standards (CLSI, [2007]). The MIC50 and MBC values were determined using a broth microdilution and growth inhibition method previously reported by Leon-Calvijo et al. ([2015]), with some modifications (Wiegand et al., [2008]). Briefly, the MIC50 experiments comprised a liquid-inhibition growth assay in a sterile, untreated, 96-well flat-bottom tissue culture plate. The bacteria were cultured overnight n Mueller Hinton agar; three colonies were transferred to 8 mL of Mueller Hilton broth and incubated at 37°C until the mid-exponential phase of growth. The turbidity of the cultures was measured and adjusted spectrophotometrically to a McFarland standard of 0.5, and then diluted to a final concentration of 5 × 10^7 colony forming units (CFU) per well. Stock solutions (2,000 μM) of each test peptide were serially diluted to final concentrations (per well) of 200, 100, 50, 25, 12.5, and 6.25 μM. Each concentration was evaluated in duplicate and each assay was performed in triplicate.
# (§2) Wells containing Mueller Hilton broth with bacterial inoculum only served as bacterial-growth controls. Additional controls included Mueller Hilton broth alone (as blank) and Mueller Hilton broth with ciprofloxacin (2 μg/mL; as positive control). The microplate was incubated for 24 h at 37°C, and growth inhibition was measured by monitoring the optical density at 620 nm (OD620). The MIC50 was defined as the peptide concentration at which bacterial growth was inhibited by 50%.
# (§3) To determine the MBC, an aliquot from each well of the MIC50 assay was spread onto Mueller Hilton agar. After 18 h at 37°C, the concentration that inhibited bacterial growth was determined. Each of these tests was performed four times. MBC was defined as the lowest concentration of peptide at which the number of bacteria was reduced by 99.9% in vitro (European Committee for Antimicrobial Susceptibility Testing, [2000]).
# [2] = tested on: Enterococcus faecalis ATCC 29212 (sensitive); assay type: cell-based; settings: for MBC: ATCC 29212, 18 h; for MIC50: ATCC 29212, 24 h
# Procedure: as §1, §2, §3
# [3] = tested on: Enterococcus faecalis ATCC 51575 (resistant); assay type: cell-based; settings: for MBC: ATCC 51575, 18 h; for MIC50: ATCC 51575, 24 h
# Procedure: as §1, §2, §3
# [4] = tested on: Pseudomonas aeruginosa ATCC 27853 (resistant); assay type: cell-based; settings: for MBC: ATCC 27853, 18 h; for MIC50: ATCC 27853, 24 h
# Procedure: as §1, §2, §3
# [5] = tested on: clinical isolates of Gram-positive bacteria (Enteroccocus faecium, Staphylococcus aureus); test: Therapeutic index, Gram-positive clinical isolates
# Source text: (§4) We determined the therapeutic index of each peptide, which we defined as the ratio of Maximum Hemolytic Activity (Hmax) to MIC50 (Hmax/MIC50).
# (§5) The results are shown in Table 7 (Gram-positive) and Table 8 (Gram-negative). Regarding the Gram-positive bacteria, the palindromic, dimeric and tetrameric peptides were active chiefly against S. aureus. This trend was consistent with results of the experiments on the ATCC strains, in which these peptides were only active against the sensitive strain of the […] bacteria.
# [6] = tested on: human erythrocytes; test: Hemolytic activity; assay type: cell-based; settings: red cells of human, 2 h
# Procedure: Human erythrocytes collected from the blood samples of healthy humans were harvested by centrifugation for 7 min at 162 × g and washed three times in phosphate-buffered saline (PBS). The erythrocytes (2% hematocrit in PBS) were incubated with peptide molecules at several concentrations (6.25, 12.5, 25, 50, and 100 μM) for 2 h at 37°C. PBS was used as negative control for hemolysis, and sterile distilled water was used as positive control (100% hemolysis). The plate was subsequently centrifuged at 1,459 × g for 10 min at 4°C. Aliquots of the supernatant from each well (75 μL) were carefully transferred to a new sterile 96-well plate, and hemolytic activity was evaluated by measuring the OD492 using an Asys Expert Plus Microplate reader. The experiments were performed in duplicate, and hemolytic activity was calculated for each peptide.
# [7] = tested on: clinical isolates of Gram-negative bacteria (Klebsiella pneumoniae, Pseudomonas aeruginosa); test: Therapeutic index, Gram-negative clinical isolates
# Source text: as §4, §5
# [8] = tested on: Gram-negative ATCC strains (K. pneumoniae 13883 and 700603, P. aeruginosa 10145 and 27853)
# Source text: as §4
# The therapeutic index (TI) is a ratio of the toxic dose of a substance to its therapeutically-active dose and can be calculated different ways (e.g., LD50/ED50). Here, we calculated a TI value for each peptide against all the Gram-positive or the Gram-negative ATCC strains, by dividing its Hmax by its MIC50 for the given group of strains. […] Additionally, to make our quantitative analysis more robust [geometric mean (Khachatryan et al., [2017]) and fold values], we have included MIC50 values for these peptides against S. aureus and K. pneumoniae that we previously obtained using the same assay, the M7-A7 method of the National Committee for Clinical Laboratory Standards (Leon-Calvijo et al., [2015]).
# [9] = tested on: Staphylococcus aureus clinical isolate 43,337; assay type: cell-based; settings: for MBC: clinical isolate 43,337, 18 h; for MIC50: clinical isolate 43,337, 24 h
# Procedure: (§6) For the clinical isolates, we used 20 different isolates from the Public Health Reference Laboratory collection of the Secretaría de Salud del Distrito (SdSD; Bogotá, Colombia). The samples were collected from June to December 2016. For each isolate, the patient parameters (age, gender and location) and the culture site were recorded for epidemiologic monitoring (Table 1). All isolates had been previously tested for antibiotic sensitivity at the Public Health Microbiology Laboratory using either the Phoenix™ system (Gram-positive) or the VITEK 2 system (Gram-negative).
# as §1, §2, §3
# [10] = tested on: Klebsiella pneumoniae clinical isolate 49,644; assay type: cell-based; settings: for MBC: clinical isolate 49,644, 18 h; for MIC50: clinical isolate 49,644, 24 h
# Procedure: as §6, §1, §2, §3
# [11] = tested on: Pseudomonas aeruginosa clinical isolate 48,220; assay type: cell-based; settings: for MBC: clinical isolate 48,220, 18 h; for MIC50: clinical isolate 48,220, 24 h
# Procedure: as §6, §1, §2, §3
MIC50 [1] [µM],MIC50 [2] [µM],MIC50 [3] [µM],MIC50 [4] [µM],"Gm, geometric mean of MIC50 values [8]",MIC50 [9] [µM],MIC50 [10] [µM],MIC50 [11] [µM],Compound,MBC [1] [µM],MBC [2] [µM],MBC [3] [µM],MBC [4] [µM],"Gm, geometric mean of MIC50 values [5]","H50, concentration of peptide leading to 50% hemolysis [6] [µM]","Gm, geometric mean of MIC50 values [7] [µM]",MBC [9] [µM],MBC [10] [µM],MBC [11] [µM],other results
29.1,13.1,>200.0,34.8,16.1,13.5,12.3,50.0,N=C(N)NCCC[C@H](NC(=O)[C@H](Cc1c[nH]c2ccccc12)NC(=O)[C@H](CCC(N)=O)NC(=O)[C@H](Cc1c[nH]c2ccccc12)NC(=O)[C@H](CCCNC(=N)N)NC(=O)[C@@H](N)CCCNC(=N)N)C(=O)NCCCC[C@H](NC(=O)[C@H](CCCNC(=N)N)NC(=O)[C@H](Cc1c[nH]c2ccccc12)NC(=O)[C@H](CCC(N)=O)NC(=O)[C@H](Cc1c[nH]c2ccccc12)NC(=O)[C@H](CCCNC(=N)N)NC(=O)[C@@H](N)CCCNC(=N)N)C(=O)NCCCCCC(N)=O [LfcinB (20–25)2] (I: H-RRWQWRK[Ahx]-NH2 / II: H-RRWQWR; amide I:7-II:C; N-terminus assumed),100.0,100.0,>200.0,200.0,16.4,>100,16.8,25.0,50.0,50.0,"MBC relative to MBC of the tetrameric peptide (× MBCtet) ([1]; sensitive P. aeruginosa strain): 4 × MBCtet; Bacterial viability (lowest value observed) ([2]; 25 μM, untreated control = 100%, Figure 2A): 40.9%; MBC relative to MBC of the tetrameric peptide (× MBCtet) ([2]; sensitive E. faecalis strain): 4 × MBCtet; Bacterial viability (lowest value observed) ([3]; 25.0 μM, untreated control = 100%, Figure 2B): 65.3%; MBC relative to MBC of the tetrameric peptide (× MBCtet) ([4]; resistant P. aeruginosa strain): 4 × MBCtet; Fold (GM peptide / GM tetrameric peptide) ([5]; Gram-positive clinical isolates): 2.4; Fold (GM peptide / GM tetrameric peptide) ([7]; Gram-negative clinical isolates): 1.7; Fold (GM peptide / GM tetrameric peptide) ([8]; Gram-negative ATCC strains): 1.2"
99.7,25.6,>200.0,107.2,54.1,13.0,12.5,>100,RWQWRWQWR [PLS],>200.0,100.0,>200.0,>200.0,13.7,>100,17.4,50.0,100.0,>100,–
